Measured values as given in patent US20250179059A1 (The Regents of the University of California, priority 2021, published 2025).
pIC50: −log10 of the molar value.

Test system: human SKM-1 acute myeloid leukemia cells
Assay: SKM-1 antiproliferation cell-based assay (ATPlite)
Conditions: Homo sapiens, SKM-1, SKM-1 antiproliferation assay
Protocol: The cell-based assay indirectly measures cell density (and therefore proliferation and/or survival) by detecting total ATP concentration in a homogeneous format. Briefly, human SKM-1 acute myeloid leukemia cells (Leibniz Institute DSMZ #ACC 547) proliferating in log phase are collected by centrifugation, re-suspended in culture media (RPMI 1640/15% FBS/100 U/mL penicillin/100 μg/mL streptomycin) and diluted to 34722 cells/mL in media after counting. Then 180 μL cells are plated per well into a 96-well tissue-culture treated, clear bottom plate (Coming #3603). A 96-well compound plate (Corning #3357) is then generated by serial dilution of compounds into DMSO over nine concentrations and adding separate negative (DMSO) and positive control (reference compound) wells. Each compound concentration is tested in triplicate. First, 1 μL from each well of the compound plate is added to 99 μL culture media in an intermediate plate and mixed by pipetting. Then 20 μL of the diluted compounds in media are added to the assay plate containing the cells. The assay plate is maintained for 4 days in a standard cell culture incubator. At the end of the incubation period, 100 μL ATPlite Istep (PerkinElmer) is added to the assay plate wells, and the resulting luminescence is detected using an Infinite M1000 or a Spark multimode plate reader (Tecan). Data analysis is performed in Prism (GraphPad Software). For curve fitting, a non-linear regression, variable slope equation is used to calculate cellular IC50s.

Compound	GI50
Cn1ccn(-c2ccc(-c3cc(C=O)cc(-c4cccc(N5CCN(C(C)(C)C)CC5)c4)c3O)cc2Cl)c1=O [Example 1042, 3″-(4-(tert-Butyl)piperazin-1-yl)-3-chloro-2′-hydroxy-4-(3-methyl-2-oxo-2,3-dihydro-1H-imidazol-1-yl)-[1,1′:3′,1″-terphenyl]-5′-carbaldehyde]	300 to 3000 nM
CC(C)(C)N1CCN(c2cccc(-c3cc(F)cc(-c4ccc(-n5ccsc5=O)c(Cl)c4)c3O)c2)CC1 [Example 1052, 3-(3″-(4-(tert-butyl)piperazin-1-yl)-3-chloro-5′-fluoro-2′-hydroxy-[1,1′:3′,1″-terphenyl]-4-yl)thiazol-2(3H)-one]	0.3 to 30 nM
Cc1cc(-c2ccc(-n3ccn(C)c3=O)c(Cl)c2)c(O)c(-c2ccc(=O)n(C3CCN(C(C)C)CC3)c2)n1 [Example 1048, 4-(3-Chloro-4-(3-methyl-2-oxo-2,3-dihydro-1H-imidazol-1-yl)phenyl)-3-hydroxy-1′-(1-isopropylpiperidin-4-yl)-6-methyl-[2,3′-bipyridin]-6′(1′H)-one]	30 to 300 nM
Cn1ccn(-c2ccc(-c3cc(F)nc(-c4cccc(N5CCN(C(C)(C)C)CC5)c4)c3O)cc2F)c1=O [Example 1054, 1-(4-{2-[3-(4-tert-Butyl-piperazin-1-yl)-phenyl]-6-fluoro-3-hydroxy-pyridin-4-yl}-2-fluoro-phenyl)-3-methyl-1,3-dihydro-imidazol-2-one]	0.3 to 30 nM
[2H]C([2H])([2H])n1ccn(-c2ccc(-c3cc(F)nc(-c4cccc(N5CCN(C(C)(C)C)CC5)c4)c3O)cc2Cl)c1=O [Example 1047, 1-(4-(2-(3-(4-(tert-butyl)piperazin-1-yl)phenyl)-6-fluoro-3-hydroxypyridin-4-yl)-2-chlorophenyl)-3-(methyl-d3)-1,3-dihydro-2H-imidazol-2-one]	0.3 to 30 nM
Cn1ccn(-c2ccc(-c3cc(F)nc(-c4cnc(O)c(N5CCN(C(C)(C)C)CC5)c4)c3O)cc2Cl)c1=O [Example 1049, 1-(4-(5′-(4-(tert-butyl)piperazin-1-yl)-6-fluoro-3,6′-dihydroxy-[2,3′-bipyridin]-4-yl)-2-chlorophenyl)-3-methyl-1,3-dihydro-2H-imidazol-2-one]	30 to 300 nM
Cc1cc(-c2cc(F)nc(-c3cccc(N4CCN(C(C)(C)C)CC4)c3)c2O)ccc1-n1ccn(C)c1=O [Example 1050, 1-(4-(2-(3-(4-(tert-butyl)piperazin-1-yl)phenyl)-6-fluoro-3-hydroxypyridin-4-yl)-2-methylphenyl)-3-methyl-1,3-dihydro-2H-imidazol-2-one]	0.3 to 30 nM
Cc1cc(-c2ccc(-n3ccsc3=O)c(Cl)c2)c(O)c(-c2cccc(N3CCN(C(C)(C)C)CC3)c2)n1 [Example 1053, 3-(4-(2-(3-(4-(tert-butyl)piperazin-1-yl)phenyl)-3-hydroxy-6-methylpyridin-4-yl)-2-chlorophenyl)thiazol-2(3H)-one]	0.3 to 30 nM
COc1ncc(-c2nc(F)cc(-c3ccc(-n4ccn(C)c4=O)c(Cl)c3)c2O)cc1N1CCN(C(C)(C)C)CC1 [Example 1044, 1-(4-(5′-(4-(tert-Butyl)piperazin-1-yl)-6-fluoro-3-hydroxy-6′-methoxy-[2,3′-bipyridin]-4-yl)-2-chlorophenyl)-3-methyl-1H-imidazol-2(3H)-one]	0.3 to 30 nM
Cc1cc(-c2ccc(N3CCN(C)C3=O)c(Cl)c2)c(O)c(-c2cccc(N3CCN(C(C)(C)C)CC3)c2)n1 [Example 1046, 1-(4-(2-(3-(4-(tert-Butyl)piperazin-1-yl)phenyl)-3-hydroxy-6-methylpyridin-4-yl)-2-chlorophenyl)-3-methylimidazolidin-2-one]	0.3 to 30 nM
Cn1ccn(-c2ccc(-c3cc(F)cc(-c4cccc(N5CCN(C(C)(C)C)CC5)c4)c3N)cc2Cl)c1=O [Example 1058, 1-[2′-Amino-3-(4-tert-butyl-piperazin-1-yl)-3″-chloro-5′-fluoro-[1,1′;3′,1″ ]terphenyl-4″-yl]-3-methyl-1,3-dihydro-imidazol-2-one]	0.3 to 30 nM
Cn1ccn(-c2ccc(-c3cc(F)nc(-c4cccc(N5CCN(C(C)(C)C)CC5)c4)c3N)cc2Cl)c1=O [Example 1056, 1-(4-(3-amino-2-(3-(4-(tert-butyl)piperazin-1-yl)phenyl)-6-fluoropyridin-4-yl)-2-chlorophenyl)-3-methyl-1,3-dihydro-2H-imidazol-2-one]	0.3 to 30 nM
Cc1cc(-c2ccc(N3CCCC3=O)c(Cl)c2)c(O)c(-c2cccc(N3CCN(C(C)(C)C)CC3)c2)n1 [Example 1041, 1-(4-(2-(3-(4-(tert-butyl)piperazin-1-yl)phenyl)-3-hydroxy-6-methylpyridin-4-yl)-2-chlorophenyl)pyrrolidin-2-one]	30 to 300 nM
CC(C)(C)N1CCN(c2cccc(-c3cc(F)cc(-c4ccc(N5CCCC5=O)c(Cl)c4)c3O)c2)CC1 [Example 1045, 1-(3″-(4-(tert-Butyl)piperazin-1-yl)-3-chloro-5′-fluoro-2′-hydroxy-[1,1′:3′,1″-terphenyl]-4-yl)pyrrolidin-2-one]	30 to 300 nM
CC1=CCN(c2ccc(-c3cc(F)cc(-c4cccc(N5CCN(C(C)(C)C)CC5)c4)c3O)cc2Cl)C1=O [Example 1051, 1-(3″-(4-(tert-Butyl)piperazin-1-yl)-3-chloro-5′-fluoro-2′-hydroxy-[1,1′:3′,1″-terphenyl]-4-yl)-3-methyl-1,5-dihydro-2H-pyrrol-2-one]	0.3 to 30 nM
CC1=CCN(c2ccc(-c3cc(C)nc(-c4cccc(N5CCN(C(C)(C)C)CC5)c4)c3O)cc2Cl)C1=O [Example 1055, 1-(4-(2-(3-(4-(tert-butyl)piperazin-1-yl)phenyl)-3-hydroxy-6-methylpyridin-4-yl)-2-chlorophenyl)-3-methyl-1,5-dihydro-2H-pyrrol-2-one]	0.3 to 30 nM
CCc1ncc(-c2nc(F)cc(-c3ccc(-n4ccn(C)c4=O)c(Cl)c3)c2O)cc1N1CCN(C(C)(C)C)CC1 [Example 1059, 1-(4-(5′-(4-(tert-butyl)piperazin-1-yl)-6′-ethyl-6-fluoro-3-hydroxy-[2,3′-bipyridin]-4-yl)-2-chlorophenyl)-3-methyl-1,3-dihydro-2H-imidazol-2-one]	0.3 to 30 nM
Cn1ccn(-c2ccc(-c3nc(F)cc(-c4cccc(N5CCN(C(C)(C)C)CC5)c4)c3N)cc2Cl)c1=O [Example 1057, 1-(4-(3-amino-4-(3-(4-(tert-butyl)piperazin-1-yl)phenyl)-6-fluoropyridin-2-yl)-2-chlorophenyl)-3-methyl-1,3-dihydro-2H-imidazol-2-one]	0.3 to 30 nM

Same assay, conditions: SKM-1 antiproliferation assay

Compound	GI50
Cc1ncc(-c2cc(F)cc(-c3ccc(-n4ccn(C)c4=O)c(Cl)c3)c2O)cc1N1CC2(CC2)[C@](C)(O)C1 [Example 874]	0.3 to 30 nM

Target: T1, human BRD4 bromodomain II (Homo sapiens, UniProt O60885)
T1 construct: human BRD4 bromodomain II [based on Genbank NM_058243, residues 349-460]; host or cells: E. coli
Assay: Bromodomain binding assay (AlphaScreen), BRD4 BDII
Conditions: AlphaScreen assay, Table C2; read-out: BRD4 BDII IC50
Outline: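 E. coli-expressed N-terminal His6-tagged human BRD4 BDII (residues 349-460) or BDI (residues 44-170) was preincubated 30 min at room temperature with compound (10-point, 3-fold) in pH 7.5 HEPES buffer, 1% DMSO. Displacement of biotinylated tetra-acetylated H4 1-21 peptide was read by AlphaScreen, and IC50 came from curve fitting.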

Compound	pIC50
CC(=O)Nc1ccc(-c2cccc(-c3cccc(N4CC5(CCNC5)CC4=O)c3)c2O)cc1F (stereo not drawn) [Example 194, N-(3-fluoro-2′-hydroxy-3″-(3-oxo-2,7-diazaspiro[4.4]nonan-2-yl)-[1,1′:3′,1″-terphenyl]-4-yl)acetamide]	8.00 to 9.00
O=C1NCCN1c1ccc(-c2cccc(-c3cc(N4CCNCC4)no3)c2O)cc1 [Example 41, 1-(2′-Hydroxy-3′-(3-(piperazin-1-yl)isoxazol-5-yl)-[1,1′-biphenyl]-4-yl)imidazolidin-2-one 2,2,2-trifluoroacetate]	7.00 to 8.00
CC(=O)Nc1ccc(-c2cccc(-c3ccc(NC(C)=O)c(Oc4ccccc4)c3)c2O)cc1F [Example 53, N,N′-(3-Fluoro-2′-hydroxy-3″-phenoxy-[1,1′:3′,1″-terphenyl]-4,4″-diyl)diacetamide]	< 7.00
CC(=O)Nc1ccc(-c2cccc(-c3cc(N4CCNCC4)ccc3C)c2O)cc1F [Example 181, N-(3-fluoro-2′-hydroxy-2″-methyl-5″-(piperazin-1-yl)-[1,1′:3′,1″-terphenyl]-4-yl)acetamide]	< 7.00
COc1cc(-c2cccc(-c3ccc(NC(C)=O)c(F)c3)c2O)ccc1F [Example 157, N-(3,4″-difluoro-2′-hydroxy-3″-methoxy-[1,1′:3′,1″-terphenyl]-4-yl)acetamide]	< 7.00
CC(=O)Nc1ccc(-c2cccc(-c3cnn(C4CCN(C)CC4)c3)c2O)cc1 [Example 17, N-(2′-Hydroxy-3′-(1-(1-methylpiperidin-4-yl)-1H-pyrazol-4-yl)-[1,1′-biphenyl]-4-yl)acetamide]	< 7.00
CC(=O)Nc1ccc(-c2cccc(-c3cccc(N4CCC(CN)C4)c3)c2O)cc1F (stereo not drawn) [Example 203, N-(3″-(3-(aminomethyl)pyrrolidin-1-yl)-3-fluoro-2′-hydroxy-[1,1′:3′,1″-terphenyl]-4-yl)acetamide]	8.00 to 9.00
CC(=O)Nc1ccc(-c2cccc(-c3cc(N4CCN(S(C)(=O)=O)CC4)no3)c2O)cc1 [Example 143, N-(2′-hydroxy-3′-(3-(4-(methylsulfonyl)piperazin-1-yl)isoxazol-5-yl)-[1,1′-biphenyl]-4-yl)acetamide]	< 7.00
